According to ChEMBL document CHEMBL1129000, “Inhibitors of acyl-CoA: cholesterol O-acyl transferase (ACAT) as hypocholesterolemic agents. The synthesis and biological activity of a series of malonester amides” (Bioorg Med Chem Lett, 1996):
Activity calls are given as the source filed them. The rule behind the calls is not given here.

Tests used:
Rattus norvegicus [1] = assay: Tested for the percentage change in non HDL-C in pre-established hypercholesterolemia (CPCC) model at a dose of 30 mg/kg; format: functional
Rattus norvegicus [2] = assay: Tested for the percentage change in non HDL in pre-established hypercholesterolemia (CPCC) model fat at a dose of 30 mg/kg; format: functional
O-acyltransferase = O-acyltransferase (Oryctolagus cuniculus, UniProt G1SFD9); assay: In vitro inhibitory activity against Acyl coenzyme A:cholesterol acyltransferase in intestinal microsomes isolated from cholesterol fed rabbits (IAI).; design: species or system Intestine
Chain of O-acyltransferase (G1SFD9 1-524): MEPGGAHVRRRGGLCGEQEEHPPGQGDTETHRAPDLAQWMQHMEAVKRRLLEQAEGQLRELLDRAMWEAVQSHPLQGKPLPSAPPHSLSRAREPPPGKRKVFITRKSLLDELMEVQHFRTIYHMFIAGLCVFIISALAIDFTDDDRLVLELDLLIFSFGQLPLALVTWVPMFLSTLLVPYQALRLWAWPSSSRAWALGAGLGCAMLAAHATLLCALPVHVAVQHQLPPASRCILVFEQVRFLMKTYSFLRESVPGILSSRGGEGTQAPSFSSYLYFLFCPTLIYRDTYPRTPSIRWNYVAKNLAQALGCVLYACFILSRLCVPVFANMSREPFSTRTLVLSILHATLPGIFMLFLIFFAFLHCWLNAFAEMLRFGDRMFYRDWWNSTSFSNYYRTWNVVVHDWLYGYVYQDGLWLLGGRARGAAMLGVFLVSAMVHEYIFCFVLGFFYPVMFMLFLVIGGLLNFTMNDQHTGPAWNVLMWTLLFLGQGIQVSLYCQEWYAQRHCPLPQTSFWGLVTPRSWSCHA

Rattus norvegicus [3] = assay: In vivo percent change in the total cholesterol after consumption of a single high fat, high cholesterol meal by rats; format: functional
Rattus norvegicus [4] = assay: Tested for the percentage change in non HDL-C in pre-established hypercholesterolemia (CPCC) model at dose of 10 mg/kg.; format: functional
Rattus norvegicus [5] = assay: Tested for the percentage change in non HDL-C in pre-established hypercholesterolemia (CPCC) model at a dose of 1 mg/kg; format: functional
Rattus norvegicus [6] = assay: Tested for the percentage change in HDL in pre-established hypercholesterolemia (CPCC) model at a dose of 10 mg/kg.; format: functional
Rattus norvegicus [7] = assay: Tested for the percentage change in HDL in pre-established hypercholesterolemia (CPCC) model at a dose of 3 mg/kg; format: functional
Rattus norvegicus [8] = assay: Tested for the percentage change in non HDL-C in pre-established hypercholesterolemia (CPCC) model fat at a dose of 3 mg/kg; format: functional
Rattus norvegicus [9] = assay: Tested for the percentage change in HDL in pre-established hypercholesterolemia (CPCC) model at a dose of 1 mg/kg; No change; format: functional, organism-based; design: dose 1 mg/kg
Rattus norvegicus [10] = assay: Tested for the percentage change in non HDL in pre-established hypercholesterolemia (CPCC) model fat at a dose of 30 mg/kg; Non significant; format: functional, organism-based; design: dose 30 mg/kg
Rattus norvegicus [11] = assay: Tested for the percentage change in non HDL-C in pre-established hypercholesterolemia (CPCC) model at dose of 10 mg/kg (p<0.05); format: functional
Rattus norvegicus [12] = assay: Tested for the percentage change in HDL in pre-established hypercholesterolemia (CPCC) model at a dose of 3 mg/kg (p<0.05); format: functional
Rattus norvegicus [13] = assay: Tested for the percentage change in non HDL-C in pre-established hypercholesterolemia (CPCC) model at a dose of 1 mg/kg (p<0.05); format: functional
Rattus norvegicus [14] = assay: Tested for the percentage change in non HDL-C in pre-established hypercholesterolemia (CPCC) model fat at a dose of 3 mg/kg (p<0.05); format: functional
Rattus norvegicus [15] = assay: Tested for the percentage change in HDL in pre-established hypercholesterolemia (CPCC) model at a dose of 1 mg/kg (p<0.05); format: functional
Rattus norvegicus [16] = assay: Tested for the percentage change in HDL in pre-established hypercholesterolemia (CPCC) model at a dose of 10 mg/kg (p<0.05); format: functional
Rattus norvegicus [17] = assay: Tested for the percentage change in non HDL-C in pre-established hypercholesterolemia (CPCC) model fat at a dose of 1 mg/kg; format: functional
Rattus norvegicus [18] = assay: Tested for the percentage change in non HDL-C in pre-established hypercholesterolemia (CPCC) model at dose of 3 mg/kg.; format: functional
Rattus norvegicus [19] = assay: Tested for the percentage change in non HDL-C in pre-established hypercholesterolemia (CPCC) model at a dose of 0.1 mg/kg; format: functional
Rattus norvegicus [20] = assay: Tested for the percentage change in HDL in pre-established hypercholesterolemia (CPCC) model at a dose of 1 mg/kg; format: functional
Rattus norvegicus [21] = assay: Tested for the percentage change in HDL in pre-established hypercholesterolemia (CPCC) model at a dose of 0.1 mg/kg; format: functional
Rattus norvegicus [22] = assay: Tested for the percentage change in HDL in pre-established hypercholesterolemia (CPCC) model at a dose of 3 mg/kg.; format: functional
Rattus norvegicus [23] = assay: Tested for the percentage change in HDL in pre-established hypercholesterolemia (CPCC) model fat at a dose of 30 mg/kg; format: functional

Structure (SMILES)	IC50 (O-acyltransferase) [nM]	Change (Rattus norvegicus [3]) [%]	other results
CCCCCCCCCCCCCCOC(=O)CC(=O)Nc1c(C(C)C)cccc1C(C)C	15	-61	Change (Rattus norvegicus [1]): -11%; Change (Rattus norvegicus [2]): 6%
CCCCCCCCCCCC[C@H](C)OC(=O)CC(=O)Nc1c(C(C)C)cccc1C(C)C	4	-66	–
CCCCCCOC(=O)CC(=O)Nc1c(C(C)C)cccc1C(C)C	810	-29	–
CCOC(=O)CC(=O)Nc1c(C(C)C)cccc1C(C)C	1800	–	–
CC(C)c1cccc(C(C)C)c1OC(=O)CC(=O)Nc1c(N(C)C)cccc1N(C)C	71	-29	–
CCCCCCCCCCC(C)OC(=O)CC(=O)Nc1c(C(C)C)cccc1C(C)C (stereo not given)	6	-70	Change (Rattus norvegicus [4]): -51%; Change (Rattus norvegicus [5]): -15%; Change (Rattus norvegicus [6]): 29%; Change (Rattus norvegicus [7]): 36%; Change (Rattus norvegicus [8]): -40%; Change (Rattus norvegicus [9]): inactive
CC(C)c1cccc(C(C)C)c1NC(=O)CC(=O)OC(c1ccccc1)c1ccccc1	38	-41	–
CCCCCCCCCCCCCCCCCCOC(=O)CC(=O)Nc1c(C(C)C)cccc1C(C)C	53	-16	–
CCCCCCCCOC(=O)CC(=O)Nc1c(C(C)C)cccc1C(C)C	260	-43	–
CC(C)c1cccc(C(C)C)c1NC(=O)CC(=O)O	> 5000	–	–
CC(C)c1cccc(C(C)C)c1OC(=O)CC(=O)Nc1c(F)cc(F)cc1F	> 5000	-9	–
CC(C)c1cccc(C(C)C)c1NC(=O)CC(=O)Oc1c(C(C)C)cccc1C(C)C	42	<-50	Change (Rattus norvegicus [1]): 9%; Change (Rattus norvegicus [10]): Not significant
CCCCCCCCCCCCCCCCOC(=O)CC(=O)Nc1c(C(C)C)cccc1C(C)C	35	-56	–
CCCCCCCCCCCCC(C)OC(=O)CC(=O)Nc1c(C(C)C)cccc1C(C)C (stereo not given)	–	-54	Change (Rattus norvegicus [11]): -83%; Change (Rattus norvegicus [12]): 157%; Change (Rattus norvegicus [13]): -54%; Change (Rattus norvegicus [14]): -73%; Change (Rattus norvegicus [15]): 64%; Change (Rattus norvegicus [16]): 114%
CCCCCCCCCCCC[C@@H](C)OC(=O)CC(=O)Nc1c(C(C)C)cccc1C(C)C	4	-67	–
CC(C)c1cccc(C(C)C)c1OC(=O)CC(=O)Nc1c(F)cccc1F	6200	4	–
COc1cc(OC)c(OC(=O)CC(=O)Nc2c(C(C)C)cccc2C(C)C)c(OC)c1	320	-9	–

Structure (SMILES)	IC50 (O-acyltransferase) [nM]	Change (Rattus norvegicus [3]) [%]	other results
CCCCCCCCC(C)OC(=O)CC(=O)Nc1c(C(C)C)cccc1C(C)C (stereo not given)	12	-61	–
CCCCCCCCCCCCCCC(C)OC(=O)CC(=O)Nc1c(C(C)C)cccc1C(C)C (stereo not given)	11	-60	Change (Rattus norvegicus [17]): 7%; Change (Rattus norvegicus [18]): -2%; Change (Rattus norvegicus [19]): -8%; Change (Rattus norvegicus [20]): 13%; Change (Rattus norvegicus [21]): -12%; Change (Rattus norvegicus [22]): -24%
CCCCCCCCCCOC(=O)CC(=O)Nc1c(C(C)C)cccc1C(C)C	53	-37	–
CC(C)c1cccc(C(C)C)c1OC(=O)CC(=O)Nc1ccccc1	> 5000	–	–
CC(C)c1cccc(C(C)C)c1NC(=O)CC(=O)OC(c1ccccn1)c1ccccn1	> 5000	-55	–
CC(C)c1cccc(C(C)C)c1NC(=O)CC(=O)OC(c1ccccc1)c1ccccn1 (stereo not given)	> 5000	–	–
CC(C)c1cccc(C(C)C)c1NC(=O)CC(=O)Oc1c(-c2ccccc2)cccc1-c1ccccc1	67	-41	–
COc1cc(OC)c(NC(=O)CC(=O)Oc2c(C(C)C)cccc2C(C)C)c(OC)c1	1000	-29	–
Cc1cccc(C)c1NC(=O)CC(=O)Oc1c(C(C)C)cccc1C(C)C	210	5	–
CCCCCCCCCCCCC(C)(C)OC(=O)CC(=O)Nc1c(C(C)C)cccc1C(C)C	12	-72	Change (Rattus norvegicus [17]): -19%; Change (Rattus norvegicus [18]): -19%; Change (Rattus norvegicus [19]): -11%; Change (Rattus norvegicus [20]): 6%; Change (Rattus norvegicus [21]): -12%; Change (Rattus norvegicus [22]): -13%
CC(C)c1cccc(C(C)C)c1OC(=O)CC(=O)Nc1ccc(F)cc1F	6400	–	–
CCCCCCCCCCCCOC(=O)CC(=O)Nc1c(C(C)C)cccc1C(C)C	11	-52	Change (Rattus norvegicus [1]): -8%; Change (Rattus norvegicus [23]): -21%
CCCCCC(C)OC(=O)CC(=O)Nc1c(C(C)C)cccc1C(C)C (stereo not given)	27	-46	–
COc1cccc(OC)c1OC(=O)CC(=O)Nc1c(C(C)C)cccc1C(C)C	1700	5	–
CC(C)c1cccc(C(C)C)c1NC(=O)CC(=O)OC(C)(C)C	130	-24	–
CCCCC(C)(C)OC(=O)CC(=O)Nc1c(C(C)C)cccc1C(C)C	15	-52	–
